Source: PMC6445123 (Scientific Reports, 2019)
Changes are numbered by the printed parent chain. Names may count otherwise. Blank lines part the entries; values can stand above or below the molecule they belong to.

Legend:
[1] = target: T1, recombinant active Casp6 (Casp6-WT) (Homo sapiens, UniProt P55212, INS179NQTEKLDTNITEVD); assay: Fluorescence-based Ac-VEID-AFC cleavage assay (Casp6 activity, IC50 determination); type: biochemical; details: 10 µM Ac-VEID-AFC; for % Inhibition with 100 µM compound (fluorescence assay): 20 nM Casp6, relative to 1% DMSO control; for IC50: fluorescence assay, 20 nM Casp6 active sites, read-out: IC50
T1 construct: generating mainly large subunit with a linker (LS-L), small subunit (SS), and a minor amount of large subunit (LS); His (C); made in house; host or cells: E. coli BL21(DE3)pLysS
T1 sequence (P55212 24-193 limits assumed): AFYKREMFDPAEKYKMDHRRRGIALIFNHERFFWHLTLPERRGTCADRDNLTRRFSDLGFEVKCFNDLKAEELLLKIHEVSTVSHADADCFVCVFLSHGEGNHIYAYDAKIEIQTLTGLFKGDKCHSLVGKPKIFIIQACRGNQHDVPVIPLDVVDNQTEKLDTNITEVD
T1 sequence (P55212 194-293 limits assumed): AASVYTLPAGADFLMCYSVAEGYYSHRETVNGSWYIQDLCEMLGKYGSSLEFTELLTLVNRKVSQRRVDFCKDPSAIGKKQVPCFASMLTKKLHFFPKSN
Protocol: (§1) To assess the potency of in silico hits, a fluorescence-based Ac-VEID-AFC cleavage assay was used to measure recombinant active Casp6 reaction rate in the absence or presence of 100 µM concentration of compounds. A 30% inhibition cut off was arbitrarily chosen for further investigation of putative inhibitors. […] AFC signal interference by compound intrinsic fluorescence was ruled out (Fig. S4). Casp6 inhibition was confirmed for seven compounds (C7, C13, C14, S2, S10, S11 and S13) using a colorimetric Ac-VEID-pNA cleavage assay (Table 2, Fig. S3).
(§2) Casp6 active sites were quantified using zVAD-FMK (N-benzyloxycarbonyl-Val-Ala-Asp-(O-methyl)-fluoromethylketone, MP Biomedicals, Santa Ana, CA, USA)[51],[64]. Casp6 activity was measured in Stennicke’s buffer (SB: 20 mM piperazine-N,N′-bis-(2-ethanesulfonic acid) pH 7.2, 100 mM NaCl, 10 mM DTT, 1 mM EDTA, 0.1% 3-[(3-cholamidopropyl)-dimethylammonio]-2-hydroxy-1-propanesulfonic acid, 10% sucrose)[65] using 40 µM Ac-VEID-AFC (Ac-Val-Glu-Ile-Asp-7-Amino-4-trifluoromethylcoumarin, Enzo Life Sciences, Farmingdale, NY, USA)[64] and 10-250 nM active site titrated Casp6. Reactions were initiated by Ac-VEID-AFC addition and followed for 20 min at 37 °C in a black clear bottom 96-well microplate (Costar, Corning, NY, USA) in Synergy H4 Hybrid instrument (BioTek, Winooski, VT, USA) with excitation/emission at 380/505 nm. Released AFC was calculated from AFC standard curve (0-25 µM). Casp6 VEIDase activity (released pmol AFC/min) was calculated from the initial linear reaction part. Ac-VEID-AFC hydrolysis initial velocities were measured with 10 nM active-site titrated Casp6 and […] Ac-VEID-AFC. Initial velocities v versus substrate concentration [S] were fit to a rectangular hyperbola using Michaelis-Menten equation in GraphPad Prism 5 (GraphPad Software, La Jolla, CA, USA).
(§3) In fluorescence-based Casp6 activity assay, 10 µM Ac-VEID-AFC was added to 20 nM Casp6 in SB with 100 μM compound and 1% dimethyl sulfoxide (DMSO), and reaction rate was measured for 20 min at 37 °C as above. Compound potency was calculated by normalising Ac-VEID-AFC cleavage rate to 1% DMSO control. In colorimetric Casp6 activity assay, 200 µM Ac-VEID-pNA (N-acetyl-Val-Glu-Ile-Asp-p-nitroanilide, Enzo Life Sciences) was added to 200 nM Casp6 in SB with 100 μM compound, and Ac-VEID-pNA cleavage rate was measured at 37 °C for 30 min in clear 96-well plate (Sartstedt, Nümbrecht, Germany) using Synergy H4 plate reader at 405 nm. Absorbance was converted to the released pNA amount based on a standard curve of 0–250 µM pNA. Cleavage rates were calculated from the linear assay phase and were normalised to 1% DMSO control. In Casp6-C163A cleavage assay, 0.5 ng/µl Casp6-WT was preincubated with 100 µM inhibitor, 5 µM Q-VD-OPh or 1% DMSO in SB (30 min, RT), followed by transfer on ice, addition of 0.5 µg/µl Casp6-C163A, and incubation (37 °C, 5, 10 and 15 min). Reactions were stopped by adding SDS-PAGE sample buffer (62.5 mM Tris pH 6.8, 2% SDS, 0.1 M DTT, 0.01% Bromphenol Blue, 10% glycerol) and heating (5 min, 95 °C). Samples (2 µl) were analysed on 15% SDS-PAGE gels, proteins were stained with Coomassie blue, and gels were de-stained with 10% acetic acid. The intensities of protein bands were quantified from scanned gels using ImageJ. The band intensity of Casp6-C163A without a prodomain was plotted against the time and the Casp6-C163A cleavage rates were calculated from the slopes of linear plots. The % activity of Casp6-WT in the presence of inhibitors was calculated relative to DMSO control.
IC50 values were determined against 20 nM Casp6 active sites in fluorescence-based Casp6 activity assay with 10 µM Ac-VEID-AFC and 1 nM-500 µM inhibitor. IC50 was calculated with GraphPad Prism 5 by a nonlinear regression fit for log inhibitor vs relative Casp6 activity (% DMSO control) using a Hill slope of – 1, and top and bottom constraints of 100 and 0, respectively.

[2] = target: T2, recombinant active Casp6 (Homo sapiens, UniProt P55212, INS179NQTEKLDTNITEVD); assay: Colorimetric Ac-VEID-pNA cleavage assay; type: biochemical; details: 200 µM Ac-VEID-pNA, 200 nM Casp6
T2 construct: generating mainly large subunit with a linker (LS-L), small subunit (SS), and a minor amount of large subunit (LS); His (C); made in house; host or cells: E. coli BL21(DE3)pLysS
T2 sequence (P55212 24-193 limits assumed): T1 sequence (P55212 24-193 limits assumed)
T2 sequence (P55212 194-293 limits assumed): T1 sequence (P55212 194-293 limits assumed)
Protocol: as §1, §3

[3] = target: the molecule itself; assay: crystal structure; apo, fully processed Casp6 variant; crystals from 100 mM sodium acetate pH 4.6, 2 M sodium chloride, hanging drop vapour diffusion at 22 °C
[4] = target: T3, Casp6-E35K large subunit with linker (LS-L) (human, UniProt P55212 24-193, E35K); assay: as above; details: both partners purified
T3 construct: human Caspase-6, large subunit with linker (LS-L) left after complete self-processing at TETD23 and TEVD193; a minor amount is also cut at DVVD179 (LS); rare natural SNP variant E35K; source: E. coli BL21(DE3)pLysS, self-processed from full-length Casp6-E35K, purified
T3 sequence (looked up): T1 sequence (P55212 24-193 limits assumed) with E12K

[5] = Ac-VEID-AFC hydrolysis kinetics of recombinant Casp6 variants (Michaelis-Menten); type: biochemical, human; details: Ac-VEID-AFC hydrolysis, mean ± SD
Source text: In this study, we investigated how naturally occurring rare missense variants of human CASP6 affect Casp6 activity and structure. […] A34, E35, A109, and T182 are not conserved in 12 human caspases and in Casp6 from different species (Fig. 1a,b). Recombinant Casp6-WT and the four variants were expressed in E. coli, purified, and active site titrated (Fig. S2) for functional analyses. Like Casp6-WT, Casp6 variants, underwent complete self-processing at TETD23, and TEVD193 sites, and slight self-cleavage at the DVVD179 site, generating mainly large subunit with a linker (LS-L), small subunit (SS), and a minor amount of large subunit (LS) (Fig. 1c,d).
as §2

Molecule: O=C(Cn1cc(/C=C2/C(=O)NC(=O)N(Cc3ccco3)C2=O)c2ccccc21)NCC1CCCO1 (centres unmarked) [Compound S10]
- % Inhibition with 100 µM compound (fluorescence assay) [1]: 59.7 ± 3.8%
- IC50 [1]: 30.2 ± 6.8 µM
- % Inhibition with 100 µM compound (colorimetric assay) [2]: 42.6 ± 3.4%

- % Inhibition with 100 µM compound (fluorescence assay) [1]: 30.0 ± 6.0%
- IC50 [1]: 289 ± 60.9 µM
- % Inhibition with 100 µM compound (colorimetric assay) [2]: 56.3 ± 2.3%
Molecule: Nc1nc2c(s1)C(c1ccc(OCc3cccc(F)c3)cc1)CC(=O)N2 (centres unmarked) [Compound S11]

- % Inhibition with 100 µM compound (fluorescence assay) [1]: 33.8 ± 12.1%
- IC50 [1]: 159 ± 27.7 µM
- % Inhibition with 100 µM compound (colorimetric assay) [2]: 41.9 ± 8.2%
Molecule: Cc1nn(-c2ccccc2)c2c1C(c1cccc(OCc3ccccc3)c1)C(C#N)=C(N)O2 (centres unmarked) [Compound S13]

B1: Casp6-E35K, fully processed (mature, apo) (complex, human)
chain 1: T1 sequence (P55212 24-193 limits assumed) with E12K
chain 2: T1 sequence (P55212 194-293 limits assumed)
notes: human Caspase-6, large subunit with linker (LS-L) left after complete self-processing at TETD23 and TEVD193; a minor amount is also cut at DVVD179 (LS); rare natural SNP variant E35K; human Caspase-6, small subunit (SS) left after self-processing at TEVD193; One protomer (LS-L plus SS); two protomers form the dimer seen in the crystal; That the His tag sits on the small subunit is surmised from …
- binding result [3]: binds

- binding result [4]: binds
B2: Casp6 small subunit (SS) from self-processed Casp6 (domain or fragment, human, UniProt P55212 194-293, looked up)
chain: T1 sequence (P55212 194-293 limits assumed)
notes: human Caspase-6, small subunit (SS) left after self-processing at TEVD193; That the His tag sits on this chain is surmised from the plasmid's name; source: E. coli BL21(DE3)pLysS, self-processed from full-length Casp6 variant, purified

B3: Casp6-A109T: recombinant rare natural human Casp6 missense variant A109T (protein)
chain 1: T1 sequence (P55212 24-193 limits assumed) with A86T
chain 2: T1 sequence (P55212 194-293 limits assumed)
modifications: left off: His (from the plasmid name pET23b-Casp6-His), end not stated, state not stated
- Km [5]: 34.5 ± 1.8 µM
- kcat [5]: 2.51 ± 0.16 s⁻¹

B4: Casp6-T182S: recombinant rare natural human Casp6 missense variant T182S (protein, UniProt P55212 1-293, looked up, variant T182S)
chain: MSSASGLRRGHPAGGEENMTETDAFYKREMFDPAEKYKMDHRRRGIALIFNHERFFWHLTLPERRGTCADRDNLTRRFSDLGFEVKCFNDLKAEELLLKIHEVSTVSHADADCFVCVFLSHGEGNHIYAYDAKIEIQTLTGLFKGDKCHSLVGKPKIFIIQACRGNQHDVPVIPLDVVDNQSEKLDTNITEVDAASVYTLPAGADFLMCYSVAEGYYSHRETVNGSWYIQDLCEMLGKYGSSLEFTELLTLVNRKVSQRRVDFCKDPSAIGKKQVPCFASMLTKKLHFFPKSN
- Km [5]: 33.3 ± 1.2 µM
- kcat [5]: 2.42 ± 0.12 s⁻¹

B5: Casp6-K284A: Casp6 K284A alanine mutant from full-length construct, partially self-processed (protein, UniProt P55212 1-293, looked up, variant K284A)
chain: B4 chain with S182T, K284A
modifications: full-length
notes: Casp6 K284A alanine mutant from full-length construct, partially self-processed
- Km [5]: 32.6 ± 10.8 µM
- kcat [5]: 2.0 ± 1.5 s⁻¹
